# Assay results published in US8618299B2, “Azinone-substituted azapolycycle MCH-1 antagonists, methods of making, and use thereof” (Albany Molecular Research, Inc., priority 2009, dated 2013).
# Structures can show the parent of a compound that is named as a salt.
# System: not given
# Experiment: not given
# Conditions: not given
row,melting point,SMILES
1,290 to 293 °C,"Cn1c2c(c3ccc(-n4ccc(OCc5ccc(F)cn5)cc4=O)cc31)CN1CCCC1C2 (stereo not shown) (as salt: hydrochloride) [Example 12, 4-((5-Fluoropyridin-2-yl)methoxy)-1-(10-methyl-2,3,5,10,11,11a-hexahydro-1H-indolizino[7,6-b]indol-8-yl)pyridin-2(1H)-one Hydrochloride]"
2,305 °C (dec.),"Cc1ccc(-c2ccn(-c3ccc4c5c(n(C)c4c3)CC3CCCN3C5)c(=O)c2)cn1 (stereo not shown) (as salt: hydrochloride) [Example 13, 1-(10-Methyl-2,3,5,10,11,11a-hexahydro-1H-indolizino[7,6-b]indol-8-yl)-4-(6-methylpyridin-3-yl)pyridin-2(1H)-one Hydrochloride]"
3,280 to 283 °C,"Cc1ccc(-c2ccn(-c3ccc4c5c(n(C)c4c3)CCN3CCCC53)c(=O)c2)cn1 (stereo not shown) (as salt: hydrochloride) [Example 15, 1-(7-Methyl-2,3,5,6,7,11c-hexahydro-1H-indolizino[7,8-b]indol-9-yl)-4-(6-methylpyridin-3-yl)pyridin-2(1H)-one Hydrochloride]"
4,256 to 258 °C,"Cn1c2c(c3ccc(-n4ccc(OCc5ccc(F)cn5)cc4=O)cc31)C1CCCCN1CC2 (stereo not shown) (as salt: hydrochloride) [Example 21, 4-((5-Fluoropyridin-2-yl)methoxy)-1-(8-methyl-1,2,3,4,6,7,8,12c-octahydroindolo[3,2-a]quinolizin-10-yl)pyridin-2(1H)-one Hydrochloride]"
5,210 to 214 °C,"Cc1ccc(COc2ccn(-c3ccc4c5c(n(C)c4c3)CCN3CCCCC53)c(=O)c2)cn1 (stereo not shown) (as salt: hydrochloride) [Example 23, 1-(8-Methyl-1,2,3,4,6,7,8,12c-octahydroindolo[3,2-a]quinolizin-10-yl)-4-((6-methylpyridin-3-yl)methoxy)pyridin-2(1H)-one Dihydrochloride]"
6,260 to 263 °C,"Cc1ccc(COc2ccn(-c3ccc4c5c(n(C)c4c3)CC3CCCN3C5)c(=O)c2)cn1 (stereo not shown) (as salt: hydrochloride) [Example 31, 1-(10-Methyl-2,3,5,10,11,11a-hexahydro-1H-indolizino[7,6-b]indol-8-yl)-4-((6-methylpyridin-3-yl)methoxy)pyridin-2(1H)-one Hydrochloride]"

row,SMILES,melting point
1,"Cn1c2c(c3ccc(-n4ccc(OCc5ccc(F)cn5)cc4=O)cc31)C1CCCN1CC2 (stereo not shown) (as salt: hydrochloride) [Example 19, 4-((5-Fluoropyridin-2-yl)methoxy)-1-(7-methyl-2,3,5,6,7,11c-hexahydro-1H-indolizino[7,8-b]indol-9-yl)pyridin-2(1H)-one Dihydrochloride]",240 to 243 °C
2,"Cc1ccc(COc2ccn(-c3ccc4c5c(n(C)c4c3)CCN3CCCC53)c(=O)c2)cn1 (stereo not shown) (as salt: hydrochloride) [Example 20, 1-(7-Methyl-2,3,5,6,7,11c-hexahydro-1H-indolizino[7,8-b]indol-9-yl)-4-((6-methylpyridin-3-yl)methoxy)pyridin-2(1H)-one Dihydrochloride]",280 to 282 °C

# Target: human MCH-1 receptor (Homo sapiens (Human), UniProt Q99705)
# Sequence (Q99705 whole entry): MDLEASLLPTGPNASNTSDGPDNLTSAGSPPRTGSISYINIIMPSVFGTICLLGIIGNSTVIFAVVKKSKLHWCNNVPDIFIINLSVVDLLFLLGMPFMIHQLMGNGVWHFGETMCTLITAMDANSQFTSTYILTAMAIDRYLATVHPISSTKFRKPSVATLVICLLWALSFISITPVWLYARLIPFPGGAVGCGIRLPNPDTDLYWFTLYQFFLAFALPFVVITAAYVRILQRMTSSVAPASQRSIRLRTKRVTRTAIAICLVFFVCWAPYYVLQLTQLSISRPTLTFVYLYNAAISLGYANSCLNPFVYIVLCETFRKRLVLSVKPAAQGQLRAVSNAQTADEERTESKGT
# Experiment: Binding assay for human melanin-concentrating hormone (MCH1) receptor
# Conditions: membranes from CHO-K1 cells expressing human MCH1 receptor; 1.4 nM [3H]-labeled radioligand, 60 min at 25° C., pH 7.4; Ki from Cheng Prusoff equation
# Method: Binding Assay for Human Melanin-Concentrating Hormone (MCH1) Receptor
# Evaluation of the affinity of compounds for the human MCH-1 receptor was accomplished using 4-(3,4,5-tritritiumbenzyloxy)-1-(1-(2-(pyrrolidin-1-yl)ethyl)-1H-indazol-5-yl)pyridin-2(1H)-one and membranes prepared from stable CHO-K1 cells expressing the human MCH1 receptor obtained from Euroscreen (Batch 1138). Cell membrane homogenates (8.92 μg protein) were incubated for 60 min at 25° C. with 1.4 nM of the [^3H]-labeled compound in the absence or presence of the test compound in 50 mM Tris-HCl buffer, pH 7.4. Nonspecific binding was determined in the presence of 50 μM 1-(5-(4-cyanophenyl)bicyclo[3.1.0]hexan-2-yl)-3-(4-fluoro-3-(trifluoromethyl)phenyl)-1-(3-(4-methylpiperazin-1-yl)propyl)urea. Following incubation, the samples were filtered rapidly under vacuum through Skatron 11731 filters, pre-soaked in 0.5% polyethylenimine, and washed with ice-cold 50 mM Tris-HCl buffer, pH 7.4, (wash setting 9,9,0) using a Skatron cell harvester. The filters were counted for radioactivity in a liquid scintillation counter (Tri-Carb 2100TR, Packard) using a scintillation cocktail (Ultima Gold MV, Perkin Elmer).
# The results are expressed as a percent inhibition of the control radioligand specific binding. The IC50 value (concentration causing a half-maximal inhibition of control specific binding) and Hill coefficient (nH) were determined by non-linear regression analysis of the competition curve using Hill equation curve fitting. The inhibition constant (Ki) was calculated from the Cheng Prusoff equation: (Ki=IC50/(1+(L/KD)), where L=concentration of radioligand in the assay, and KD=affinity of the radioligand for the receptor.
row,Ki [nM],SMILES
1,47,"Cn1c2c(c3ccc(-n4ccc(OCc5ccccc5)cc4=O)cc31)CCN1CCCCCC21 (stereo not shown) [Example 10, 4-(Benzyloxy)-1-(13-methyl-2,3,4,5,7,8,13,13b-octahydro-1H-pyrido[1,2-a]azepino[10,9-b]indol-10-yl)pyridin-2(1H)-one Hydrochloride]"
2,59,"Cc1ccc(-c2ccn(-c3ccc4c5c(n(C)c4c3)CC3CCCN3C5)c(=O)c2)cn1 (stereo not shown) [Example 13, 1-(10-Methyl-2,3,5,10,11,11a-hexahydro-1H-indolizino[7,6-b]indol-8-yl)-4-(6-methylpyridin-3-yl)pyridin-2(1H)-one Hydrochloride]"
3,76,"Cc1ccc(-c2ccn(-c3ccc4c5c(n(C)c4c3)CCN3CCCC53)c(=O)c2)cn1 (stereo not shown) [Example 15, 1-(7-Methyl-2,3,5,6,7,11c-hexahydro-1H-indolizino[7,8-b]indol-9-yl)-4-(6-methylpyridin-3-yl)pyridin-2(1H)-one Hydrochloride]"
4,8.4,"Cn1c2c(c3ccc(-n4ccc(OCc5ccc(F)cn5)cc4=O)cc31)C1CCCCN1CC2 (stereo not shown) [Example 21, 4-((5-Fluoropyridin-2-yl)methoxy)-1-(8-methyl-1,2,3,4,6,7,8,12c-octahydroindolo[3,2-a]quinolizin-10-yl)pyridin-2(1H)-one Hydrochloride]"
5,19,"Cc1ccc(COc2ccn(-c3ccc4c5c(n(C)c4c3)CCN3CCCCC53)c(=O)c2)cn1 (stereo not shown) [Example 23, 1-(8-Methyl-1,2,3,4,6,7,8,12c-octahydroindolo[3,2-a]quinolizin-10-yl)-4-((6-methylpyridin-3-yl)methoxy)pyridin-2(1H)-one Dihydrochloride]"
6,6,"O=c1cc(OCc2ccccc2)ccn1-c1ccc2c3c([nH]c2c1)CCN1CCCC31 (stereo not shown) [Example 24, 4-(Benzyloxy)-1-(2,3,5,6,7,11c-hexahydro-1H-indolizino[7,8-b]indol-9-yl)pyridin-2(1H)-one Hydrochloride]"
7,14,"O=c1cc(OCc2ccc(F)cn2)ccn1-c1ccc2c3c([nH]c2c1)CCN1CCCC31 (stereo not shown) [Example 25, 4-((5-Fluoropyridin-2-yl)methoxy)-1-(2,3,5,6,7,11c-hexahydro-1H-indolizino[7,8-b]indol-9-yl)pyridin-2(1H)-one Hydrochloride]"
8,22,"Cc1ccc(COc2ccn(-c3ccc4c5c(n(C)c4c3)CC3CCCN3C5)c(=O)c2)cn1 (stereo not shown) [Example 31, 1-(10-Methyl-2,3,5,10,11,11a-hexahydro-1H-indolizino[7,6-b]indol-8-yl)-4-((6-methylpyridin-3-yl)methoxy)pyridin-2(1H)-one Hydrochloride]"
9,193,"Cc1ccc(-c2ccn(-c3ccc4c5c(n(C)c4c3)CC3CCCCN3C5)c(=O)c2)cn1 (stereo not shown) [Example 35, 1-(5-Methyl-5,6,6a,7,8,9,10,12-octahydroindolo[2,3-b]quinolizin-3-yl)-4-(6-methylpyridin-3-yl)pyridin-2(1H)-one Dihydrochloride]"
10,14,"O=c1cc(OCc2ccc(F)cn2)ccn1-c1ccc2c3c([nH]c2c1)CC1CCCN1C3 (stereo not shown) [Example 40, 4-((5-Fluoropyridin-2-yl)methoxy)-1-(2,3,5,10,11,11a-hexahydro-1H-indolizino[7,6-b]indol-8-yl)pyridin-2(1H)-one Hydrochloride]"
11,19,"O=c1cc(OCc2ccc(Cl)cc2F)ccn1-c1ccc2c3c([nH]c2c1)CC1CCCN1C3 (stereo not shown) [Example 42, 4-(4-Chloro-2-fluorobenzyloxy)-1-(2,3,5,10,11,11a-hexahydro-1H-indolizino[7,6-b]indol-8-yl)pyridin-2(1H)-one Hydrochloride]"
12,21,"Cn1c2c(c3ccc(-n4ccc(OCc5ccc(F)cn5)cc4=O)nc31)C1CCCN1CC2 (stereo not shown) [Example 45, 4-((5-Fluoropyridin-2-yl)methoxy)-1-(7-methyl-2,3,5,6,7,11c-hexahydro-1H-pyrido[3′,2′:4,5]pyrrolo[2,3-g]indolizin-9-yl)pyridin-2(1H)-one Hydrochloride]"

row,SMILES,Ki [nM]
1,"Cn1c2c(c3ccc(-n4ccc(OCc5ccc(F)cn5)cc4=O)cc31)C1CCCN1CC2 (stereo not shown) [Example 19, 4-((5-Fluoropyridin-2-yl)methoxy)-1-(7-methyl-2,3,5,6,7,11c-hexahydro-1H-indolizino[7,8-b]indol-9-yl)pyridin-2(1H)-one Dihydrochloride]",11
2,"Cc1ccc(COc2ccn(-c3ccc4c5c(n(C)c4c3)CCN3CCCC53)c(=O)c2)cn1 (stereo not shown) [Example 20, 1-(7-Methyl-2,3,5,6,7,11c-hexahydro-1H-indolizino[7,8-b]indol-9-yl)-4-((6-methylpyridin-3-yl)methoxy)pyridin-2(1H)-one Dihydrochloride]",13
3,"Cc1ccc(COc2ccn(-c3ccc4c5c(n(C)c4c3)CC3CCCCN3C5)c(=O)c2)cn1 (stereo not shown) [Example 33, 1-(5-Methyl-5,6,6a,7,8,9,10,12-octahydroindolo[2,3-b]quinolizin-3-yl)-4-((6-methylpyridin-3-yl)methoxy)pyridin-2(1H)-one Dihydrochloride]",31
4,"Cn1c2c(c3ccc(-n4ccc(OCc5ccc(F)cn5)cc4=O)cc31)CCN1CCCC21 (stereo not shown) [Example 43, 4-((5-Fluoropyridin-2-yl)methoxy)-1-(11-methyl-2,3,5,6,11,11b-hexahydro-1H-indolizino[8,7-b]indol-9-yl)pyridin-2(1H)-one Dihydrochloride]",26

# Same assay, conditions: membranes from CHO-K1 cells expressing human MCH1 receptor; 1.4 nM [3H]-labeled radioligand, 60 min at 25° C., pH 7.4; Ki from Cheng Prusoff equation; Dihydrochloride
row,Ki [nM],SMILES
1,10,"Cn1c2c(c3ccc(-n4ccc(OCc5ccc(F)cn5)cc4=O)cc31)CN1CCCCC1C2 (stereo not shown) [Example 37, 4-((5-Fluoropyridin-2-yl)methoxy)-1-(5-methyl-5,6,6a,7,8,9,10,12-octahydroindolo[2,3-b]quinolizin-3-yl)pyridin-2(1H)-one Dihydrochloride]"
